Counter-ions that a name gives are not always drawn. ± gives the standard deviation of the averaged measurements.
What was measured:
[1] = test system: 409B2 hiPSC (iCRISPR Cas9, FRMD7 editing); test: NHEJ-attributed indel frequency relative to solvent control (fold (ratio to mock)); higher = more NHEJ outcomes
Method: (§1)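 Subset screen of 55 drugs tested at 5 concentrations around the effective screening dose, in 409B2 iCRISPR Cas9 hiPSCs editing FRMD7 with a ssDNA donor. Drugs were applied for 24 h. Viability was read by resazurin and editing outcomes by amplicon sequencing (HDR, NHEJ <2 bp microhomology, MMEJ ≥2 bp microhomology). Values are relative to solvent mock controls; two biological replicates.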

[2] = test system: 409B2 hiPSC (iCRISPR Cas9, FRMD7 editing); test: MMEJ-attributed deletion frequency relative to solvent control (fold (ratio to mock)); higher = more MMEJ outcomes
Method: as §1

[3] = test system: 409B2 hiPSC (iCRISPR Cas9, FRMD7 editing); test: cell survival relative to solvent control (fold (ratio to mock)); higher = more surviving cells
Method: as §1

[4] = test system: 409B2 hiPSC (iCRISPR Cas9, FRMD7 editing); test: HDR (precise edit) frequency relative to solvent control (fold (ratio to mock)); higher = more homology-directed repair outcomes
Method: as §1

Compound	NHEJ-attributed indel frequency ([1]; 200 nM)	NHEJ-attributed indel frequency ([1]; 500 nM)	MMEJ-attributed deletion frequency ([2]; 200 nM)	MMEJ-attributed deletion frequency ([2]; 500 nM)	cell survival ([3]; 200 nM)	cell survival ([3]; 500 nM)	HDR ([4]; 200 nM)	HDR ([4]; 500 nM)	NHEJ-attributed indel frequency ([1]; 20 nM)	NHEJ-attributed indel frequency ([1]; 50 nM)	NHEJ-attributed indel frequency ([1]; 100 nM)	MMEJ-attributed deletion frequency ([2]; 20 nM)	MMEJ-attributed deletion frequency ([2]; 50 nM)	MMEJ-attributed deletion frequency ([2]; 100 nM)	cell survival ([3]; 20 nM)	cell survival ([3]; 50 nM)	cell survival ([3]; 100 nM)	HDR ([4]; 20 nM)	HDR ([4]; 50 nM)	HDR ([4]; 100 nM)	other results
O=C(O[C@H]1CN2CCC1CC2)N1CCc2ccccc2[C@@H]1c1ccccc1 [Solifenacin succinate] (in DMSO)	0.9657 ± 0.0021	0.993 ± 0.015	0.989 ± 0.091	0.991 ± 0.017	1.04	1.16	1.14 ± 0.017	1.06 ± 0.051	–	–	–	–	–	–	–	–	–	–	–	–	NHEJ-attributed indel frequency ([1]; 1000 nM): 0.999 ± 0.026; NHEJ-attributed indel frequency ([1]; 2000 nM): 1.01 ± 0.017; NHEJ-attributed indel frequency ([1]; 5000 nM): 0.989 ± 0.032; MMEJ-attributed deletion frequency ([2]; 1000 nM): 0.924 ± 0.054; MMEJ-attributed deletion frequency ([2]; 2000 nM): 0.937 ± 0.033; MMEJ-attributed deletion frequency ([2]; 5000 nM): 1.01 ± 0.12; cell survival ([3]; 1000 nM): 0.907; cell survival ([3]; 2000 nM): 1.06; cell survival ([3]; 5000 nM): 1.1; HDR ([4]; 1000 nM): 1.04 ± 0.12; HDR ([4]; 2000 nM): 1.02 ± 0.015; HDR ([4]; 5000 nM): 1.09 ± 0.039
Oc1cccc(O)c1 [Resorcinol] (in DMSO)	0.988 ± 0.024	0.995 ± 0.0014	0.916 ± 0.095	0.884 ± 0.054	1.15	1.17	1.07 ± 0.072	1.08 ± 0.038	–	–	–	–	–	–	–	–	–	–	–	–	NHEJ-attributed indel frequency ([1]; 1000 nM): 1 ± 0.043; NHEJ-attributed indel frequency ([1]; 2000 nM): 0.999 ± 0.033; NHEJ-attributed indel frequency ([1]; 5000 nM): 0.99 ± 0.043; MMEJ-attributed deletion frequency ([2]; 1000 nM): 0.824 ± 0.045; MMEJ-attributed deletion frequency ([2]; 2000 nM): 0.934 ± 0.13; MMEJ-attributed deletion frequency ([2]; 5000 nM): 0.922 ± 0.16; cell survival ([3]; 1000 nM): 0.955; cell survival ([3]; 2000 nM): 1.03; cell survival ([3]; 5000 nM): 1.12; HDR ([4]; 1000 nM): 1.11 ± 0.026; HDR ([4]; 2000 nM): 1.07 ± 0.021; HDR ([4]; 5000 nM): 1.06 ± 0.073
C=CC[C@]1(O)CC[C@H]2[C@@H]3CCC4=CC(=O)CCC4=C3C=C[C@@]21C [Altrenogest] (in DMSO)	1 ± 0.038	1.02 ± 0.036	0.888 ± 0.14	0.98 ± 0.18	1.05	1.06	1.048 ± 0.0023	1.01 ± 0.088	0.9775 ± 0.0069	1.007 ± 0.0051	1.007 ± 0.0033	1 ± 0.085	0.963 ± 0.12	1.02 ± 0.12	1.01	1.11	0.87	1.08 ± 0.065	1.08 ± 0.06	1.024 ± 0.0079	–
CC[C@@]1(O)C(=O)OCc2c1cc1n(c2=O)Cc2cc3cc(O)ccc3nc2-1 [10-Hydroxycamptothecin] (in DMSO)	0.267 ± 0.025	0.208 ± 0.021	0.546 ± 0.05	0.474 ± 0.22	-0.0102	-0.000182	0.0697 ± 0.015	0.109 ± 0.033	0.393 ± 0.053	0.378 ± 0.0062	0.333 ± 0.045	0.686 ± 0.039	0.286 ± 0.059	0.389 ± 0.0056	0.0133	-0.00908	-0.00864	0.141 ± 0.075	0.115 ± 0.032	0.106 ± 0.03	–
CC[C@]1(O)C[C@@H]2CN(CCc3c([nH]c4ccccc34)[C@@](C(=O)OC)(c3cc4c(cc3OC)N(C)[C@H]3[C@@](O)(C(=O)OC)[C@H](OC(C)=O)[C@]5(CC)C=CCN6CC[C@]43[C@@H]65)C2)C1 [Vinblastine sulfate] (in DMSO)	–	–	–	–	–	–	–	–	0.606 ± 0.21	0.498 ± 0.064	–	0.779 ± 0.3	0.6333 ± 0.0063	–	0.00294	0.00452	–	0.511 ± 0.28	0.302 ± 0.056	–	NHEJ-attributed indel frequency ([1]; 2 nM): 1.04 ± 0.018; NHEJ-attributed indel frequency ([1]; 5 nM): 0.958 ± 0.12; NHEJ-attributed indel frequency ([1]; 10 nM): 0.792 ± 0.39; MMEJ-attributed deletion frequency ([2]; 2 nM): 1.11 ± 0.049; MMEJ-attributed deletion frequency ([2]; 5 nM): 1.08 ± 0.057; MMEJ-attributed deletion frequency ([2]; 10 nM): 1.13 ± 0.55; cell survival ([3]; 2 nM): 0.687; cell survival ([3]; 5 nM): 0.117; cell survival ([3]; 10 nM): 0.0623; HDR ([4]; 2 nM): 1.08 ± 0.098; HDR ([4]; 5 nM): 0.737 ± 0.042; HDR ([4]; 10 nM): 0.633 ± 0.4
Nc1ccn([C@@H]2O[C@H](CO)[C@@H](O)[C@@H]2O)c(=O)n1 [Cytarabine hydrochloride] (in DMSO)	1.01 ± 0.039	1.04 ± 0.04	1.08 ± 0.13	1.04 ± 0.18	0.467	0.161	0.652 ± 0.11	0.554 ± 0.099	1.02 ± 0.026	1.05 ± 0.022	1.03 ± 0.0015	0.911 ± 0.12	0.897 ± 0.049	1.1 ± 0.021	1.01	0.968	0.672	0.71 ± 0.068	0.699 ± 0.1	0.625 ± 0.018	–
CC(=O)O[C@]1(C(C)=O)CC[C@H]2[C@@H]3C=C(C)C4=CC(=O)CC[C@]4(C)[C@H]3CC[C@@]21C [Megestrol Acetate] (in EtOH)	1 ± 0.045	1.02 ± 0.032	1.1 ± 0.091	0.9348 ± 0.0058	1.12	1.05	0.953 ± 0.015	0.96 ± 0.028	0.999 ± 0.028	1.004 ± 0.007	1.03 ± 0.037	1.01 ± 0.013	1.16 ± 0.079	0.9716 ± 0.0036	1.6	1.46	1.18	0.975 ± 0.027	0.93 ± 0.072	0.95 ± 0.068	–
Nc1c(CC(=O)O)cccc1C(=O)c1ccc(Br)cc1 [Bromfenac Sodium] (in DMSO)	0.984 ± 0.026	0.957 ± 0.032	0.866 ± 0.12	0.944 ± 0.072	1.06	1.2	1.09 ± 0.065	1.09 ± 0.07	–	–	–	–	–	–	–	–	–	–	–	–	NHEJ-attributed indel frequency ([1]; 1000 nM): 0.984 ± 0.016; NHEJ-attributed indel frequency ([1]; 2000 nM): 1.02 ± 0.022; NHEJ-attributed indel frequency ([1]; 5000 nM): 0.975 ± 0.044; MMEJ-attributed deletion frequency ([2]; 1000 nM): 0.811 ± 0.094; MMEJ-attributed deletion frequency ([2]; 2000 nM): 0.89 ± 0.033; MMEJ-attributed deletion frequency ([2]; 5000 nM): 0.976 ± 0.09; cell survival ([3]; 1000 nM): 0.983; cell survival ([3]; 2000 nM): 1.04; cell survival ([3]; 5000 nM): 1.09; HDR ([4]; 1000 nM): 1.11 ± 0.058; HDR ([4]; 2000 nM): 1.05 ± 0.025; HDR ([4]; 5000 nM): 1.11 ± 0.053
CC[C@@]1(O)C(=O)OCc2c1cc1n(c2=O)Cc2cc3c(CN(C)C)c(O)ccc3nc2-1 [Topotecan] (in DMSO)	–	–	–	–	–	–	–	–	0.68 ± 0.029	0.625 ± 0.023	–	0.595 ± 0.26	0.699 ± 0.15	–	0.0825	0.0185	–	0.975 ± 0.16	0.321 ± 0.15	–	NHEJ-attributed indel frequency ([1]; 2 nM): 0.951 ± 0.029; NHEJ-attributed indel frequency ([1]; 5 nM): 0.936 ± 0.04; NHEJ-attributed indel frequency ([1]; 10 nM): 0.896 ± 0.032; MMEJ-attributed deletion frequency ([2]; 2 nM): 1.13 ± 0.065; MMEJ-attributed deletion frequency ([2]; 5 nM): 1.04 ± 0.1; MMEJ-attributed deletion frequency ([2]; 10 nM): 0.835 ± 0.1; cell survival ([3]; 2 nM): 0.777; cell survival ([3]; 5 nM): 0.814; cell survival ([3]; 10 nM): 0.361; HDR ([4]; 2 nM): 1.11 ± 0.042; HDR ([4]; 5 nM): 1.07 ± 0.049; HDR ([4]; 10 nM): 0.938 ± 0.035

Source: the supplement of paper PMC12698765
